Data reported in ChEMBL document CHEMBL1201862, “PubChem BioAssay data set” (2004).
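Five concentrations, 48 hours, 96-well plates. GI50: concentration for 50% inhibition of growth.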 Active and inactive are the calls of the source. Rule as the data show it: active = GI50 up to about 1.1 µM and inactive = higher.

Experiments:
Assay in all cases: inhibition of tumour cell growth, NCI panel, 48 h
A498 = tested on: A498
A549 = tested on: A549
EKVX = tested on: EKVX
HT-29 = tested on: HT-29
LOX IMVI = tested on: LOX IMVI
MOLT-4 = tested on: MOLT-4
Malme-3M = tested on: Malme-3M
NCI-H226 = tested on: NCI-H226
NCI-H522 = tested on: NCI-H522
OVCAR-4 = tested on: OVCAR-4
RPMI-8226 = tested on: RPMI-8226
SF-268 = tested on: SF-268
SK-OV-3 = tested on: SK-OV-3
SNB-19 = tested on: SNB-19
SR = tested on: SR
SW-620 = tested on: SW-620
U-251 = tested on: U-251
NCI/ADR-RES = tested on: NCI/ADR-RES

Structure (SMILES) | GI50 (A498) | GI50 (A549) | GI50 (EKVX) | GI50 (HT-29) | GI50 (LOX IMVI) | GI50 (MOLT-4) | GI50 (Malme-3M) | GI50 (NCI-H226) | GI50 (NCI-H522) | GI50 (OVCAR-4) | GI50 (RPMI-8226) | GI50 (SF-268) | GI50 (SK-OV-3) | GI50 (SNB-19) | GI50 (SR) | GI50 (SW-620) | GI50 (U-251) | GI50 (NCI/ADR-RES)
CC(C)CC(N/C=C1/N=C(c2ccccc2)OC1=O)C(=O)O (stereo not drawn) | > 100 µM (inactive) | > 100 µM (inactive) | > 100 µM (inactive) | > 100 µM (inactive) | > 100 µM (inactive) | > 100 µM (inactive) | > 100 µM (inactive) | > 100 µM (inactive) | > 100 µM (inactive) | > 100 µM (inactive) | > 100 µM (inactive) | > 100 µM (inactive) | > 100 µM (inactive) | > 100 µM (inactive) | > 100 µM (inactive) | > 100 µM (inactive) | > 100 µM (inactive) | –
CC1(O)C=CC(=O)C=C1 | 37.6 µM (inactive) | > 76.4 µM (inactive) | 47.3 µM (inactive) | 38.4 µM (inactive) | 20.4 µM (inactive) | 19.2 µM (inactive) | 20.3 µM (inactive) | > 100 µM (inactive) | 18.6 µM (inactive) | 40.9 µM (inactive) | 30.1 µM (inactive) | 13.9 µM (inactive) | > 100 µM (inactive) | 25.7 µM (inactive) | 16.2 µM (inactive) | 59.2 µM (inactive) | 21.9 µM (inactive) | –
C/C(=N/NC(=O)c1ccccc1S(N)(=O)=O)C(CN1CCCCC1)C(C1=C(O)C2C=CC=CC2OC1=O)c1ccccc1 (stereo not drawn) | > 100 µM (inactive) | 91.2 µM (inactive) | > 100 µM (inactive) | 83.9 µM (inactive) | 74.5 µM (inactive) | – | 62.7 µM (inactive) | 90.2 µM (inactive) | 52.7 µM (inactive) | 67.1 µM (inactive) | 25.5 µM (inactive) | 58.5 µM (inactive) | > 100 µM (inactive) | 87.7 µM (inactive) | 23.7 µM (inactive) | 31.8 µM (inactive) | 89.1 µM (inactive) | –
CN(C)CCNC(=O)c1cccc2cc3cc(O)ccc3nc12 | 0.782 µM (active) | 0.811 µM (active) | 1.95 µM (inactive) | 1.02 µM (active) | 0.857 µM (active) | 0.147 µM (active) | 1.22 µM (inactive) | 0.621 µM (active) | – | 2 µM (inactive) | 1.36 µM (inactive) | 1.48 µM (inactive) | 1.46 µM (inactive) | 0.869 µM (active) | – | 0.611 µM (active) | 1.36 µM (inactive) | 1.48 µM (inactive)
N#C/C(=C/c1ccco1)C(=O)c1ccccc1 | > 100 µM (inactive) | > 100 µM (inactive) | > 100 µM (inactive) | > 100 µM (inactive) | > 100 µM (inactive) | > 100 µM (inactive) | > 100 µM (inactive) | > 100 µM (inactive) | > 100 µM (inactive) | > 100 µM (inactive) | > 100 µM (inactive) | > 100 µM (inactive) | > 100 µM (inactive) | – | > 100 µM (inactive) | > 100 µM (inactive) | > 100 µM (inactive) | –
c1ccc(N/N=C2\NN=C(c3ccccc3)CS2)cc1 | 10.8 µM (inactive) | 4.78 µM (inactive) | 12.4 µM (inactive) | 6.89 µM (inactive) | 4.39 µM (inactive) | 3.66 µM (inactive) | – | 16 µM (inactive) | 3.49 µM (inactive) | – | – | 5.18 µM (inactive) | 14.9 µM (inactive) | 19.3 µM (inactive) | 4.3 µM (inactive) | 12.1 µM (inactive) | > 10 µM (inactive) | –
COC1O[C@H]2CCN(C(=O)OCc3ccccc3)[C@H]2[C@H]1OCc1ccccc1 (stereo partly drawn) | > 100 µM (inactive) | 4.33 µM (inactive) | 49.2 µM (inactive) | 40.9 µM (inactive) | 56.6 µM (inactive) | 36 µM (inactive) | 45.6 µM (inactive) | 78 µM (inactive) | 37.6 µM (inactive) | > 62.4 µM (inactive) | 41 µM (inactive) | 50.2 µM (inactive) | 23.6 µM (inactive) | 89.3 µM (inactive) | 30.3 µM (inactive) | 50.2 µM (inactive) | 45.9 µM (inactive) | –
